ChEMBL document CHEMBL1201862, “PubChem BioAssay data set” (2004)
Active and inactive are the calls of the source.

Tests used:
[1] = target: T1, DNA dC->dU-editing enzyme APOBEC-3A (Homo sapiens, UniProt P31941); experiment: Dose Response confirmation of small molecule APOBEC3A DNA Deaminase Inhibitors via a fluorescence-based single-stranded DNA deaminase assay. [Related pubchem assays (depositor defined):AID493011, AID493024]; format: functional
[2] = target: T2, DNA dC->dU-editing enzyme APOBEC-3G (Homo sapiens, UniProt Q9HC16); format: functional
[3] = target: T3, Zinc finger protein mex-5 (Caenorhabditis elegans, UniProt Q9XUB2); experiment: potency of MEX-5 RNA-binding blockers – biochemical, C. elegans, fluorescence polarization, dose response (AID 1960)
T3 sequence (Q9XUB2 whole entry): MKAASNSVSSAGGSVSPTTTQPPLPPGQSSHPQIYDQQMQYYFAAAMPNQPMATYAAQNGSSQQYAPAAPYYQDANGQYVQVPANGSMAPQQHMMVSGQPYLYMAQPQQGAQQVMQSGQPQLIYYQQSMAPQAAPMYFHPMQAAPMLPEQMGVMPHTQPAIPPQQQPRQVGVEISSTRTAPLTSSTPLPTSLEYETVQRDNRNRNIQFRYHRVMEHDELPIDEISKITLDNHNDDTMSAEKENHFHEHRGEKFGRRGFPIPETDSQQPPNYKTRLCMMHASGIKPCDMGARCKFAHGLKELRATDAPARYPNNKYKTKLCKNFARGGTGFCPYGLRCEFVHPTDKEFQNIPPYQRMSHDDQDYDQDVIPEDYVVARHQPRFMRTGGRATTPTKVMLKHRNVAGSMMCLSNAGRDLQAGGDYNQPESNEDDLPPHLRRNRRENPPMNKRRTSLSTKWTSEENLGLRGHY

[4] = target: G-protein coupled receptor 55 (Homo sapiens, UniProt Q9Y2T6); experiment: inhibition of LPI-stimulated GPR55 beta-arrestin translocation – imaging, U2OS, beta-arrestin-GFP, LPI agonist, primary screen (AID 2013); format: functional;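 further: antagonist potency measured as reduced agonist-driven arrestin aggregation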
[5] = target: T4, RNA-binding protein pos-1 (Caenorhabditis elegans, UniProt G5EF15); experiment: disruptors of C. elegans POS-1 RNA interaction – biochemical, fluorescence polarization, dose response (AID 1964);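 further: purified POS-1 fused to maltose binding protein made in E. coli; potency of compounds blocking POS-1 binding to fluorescent RNA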
T4 sequence (G5EF15 whole entry): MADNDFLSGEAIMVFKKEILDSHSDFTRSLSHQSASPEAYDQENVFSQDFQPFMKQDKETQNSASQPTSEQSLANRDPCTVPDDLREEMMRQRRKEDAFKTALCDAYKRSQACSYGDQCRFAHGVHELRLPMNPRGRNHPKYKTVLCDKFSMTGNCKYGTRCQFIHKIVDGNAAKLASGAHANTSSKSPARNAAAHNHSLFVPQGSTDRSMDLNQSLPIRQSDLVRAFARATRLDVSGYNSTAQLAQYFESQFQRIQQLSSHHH

[6] = target: T2, DNA dC->dU-editing enzyme APOBEC-3G; experiment: Dose Response confirmation of small molecule APOBEC3G DNA Deaminase Inhibitors via a fluorescence-based single-stranded DNA deaminase assay. [Related pubchem assays (depositor defined):AID493012, AID493028]; format: functional
[7] = target: T1, DNA dC->dU-editing enzyme APOBEC-3A; experiment: A3A deaminase inhibition for selectivity – biochemical, dose response (AID 504722); format: functional
[8] = target: T5, Probable nicotinate-nucleotide adenylyltransferase (Staphylococcus aureus (strain N315), UniProt P65502); format: functional, Staphylococcus aureus subsp. aureus N315;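 on IC50 Mean: confirmatory dose-response retesting of NadD inhibitor hits first found in an ultra-high-throughput screen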
[9] = target: T5, Probable nicotinate-nucleotide adenylyltransferase; format: functional, Staphylococcus aureus subsp. aureus N315; details: read-out: IC50_Mean
[10] = target: T6, Carboxy-terminal domain RNA polymerase II polypeptide A small phosphatase 1 (Homo sapiens, UniProt Q9GZU7); experiment: CTDSP1 inhibitors, concentration-response, biochemical, absorbance readout, ultra-high-throughput screen actives (AID 540297); format: functional
T6 sequence (Q9GZU7 whole entry): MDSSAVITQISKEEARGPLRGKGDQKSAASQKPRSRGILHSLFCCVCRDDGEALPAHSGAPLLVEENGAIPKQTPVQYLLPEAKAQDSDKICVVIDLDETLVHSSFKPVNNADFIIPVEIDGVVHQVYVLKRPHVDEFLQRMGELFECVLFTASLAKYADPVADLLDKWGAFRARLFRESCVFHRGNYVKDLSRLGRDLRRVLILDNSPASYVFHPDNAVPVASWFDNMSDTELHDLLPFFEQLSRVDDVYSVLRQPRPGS

T1 sequence (P31941 whole entry): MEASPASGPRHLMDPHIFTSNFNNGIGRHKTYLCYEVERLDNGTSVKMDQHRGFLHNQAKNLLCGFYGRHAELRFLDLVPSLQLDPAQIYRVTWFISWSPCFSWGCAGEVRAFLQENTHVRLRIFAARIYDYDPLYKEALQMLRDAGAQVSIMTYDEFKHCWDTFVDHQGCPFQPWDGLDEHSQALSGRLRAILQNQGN
T5 sequence (P65502 whole entry): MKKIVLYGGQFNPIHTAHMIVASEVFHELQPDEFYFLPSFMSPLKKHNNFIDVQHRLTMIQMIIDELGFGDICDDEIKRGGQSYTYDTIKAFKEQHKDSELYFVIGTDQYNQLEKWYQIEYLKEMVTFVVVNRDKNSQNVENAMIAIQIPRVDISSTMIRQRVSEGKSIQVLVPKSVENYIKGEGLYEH
T2 sequence (Q9HC16 whole entry): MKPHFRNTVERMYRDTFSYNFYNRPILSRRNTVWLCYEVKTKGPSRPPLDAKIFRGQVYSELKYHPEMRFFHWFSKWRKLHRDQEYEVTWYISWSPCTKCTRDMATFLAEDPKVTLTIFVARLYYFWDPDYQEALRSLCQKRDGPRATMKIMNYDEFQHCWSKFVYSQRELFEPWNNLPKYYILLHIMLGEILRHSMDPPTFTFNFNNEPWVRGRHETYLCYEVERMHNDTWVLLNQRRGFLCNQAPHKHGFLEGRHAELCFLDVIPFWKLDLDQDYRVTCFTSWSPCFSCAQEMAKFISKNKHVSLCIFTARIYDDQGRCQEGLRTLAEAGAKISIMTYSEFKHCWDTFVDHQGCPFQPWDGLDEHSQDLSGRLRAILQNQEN
Chain of G-protein coupled receptor 55 (Q9Y2T6 whole entry, the tested form may be a part): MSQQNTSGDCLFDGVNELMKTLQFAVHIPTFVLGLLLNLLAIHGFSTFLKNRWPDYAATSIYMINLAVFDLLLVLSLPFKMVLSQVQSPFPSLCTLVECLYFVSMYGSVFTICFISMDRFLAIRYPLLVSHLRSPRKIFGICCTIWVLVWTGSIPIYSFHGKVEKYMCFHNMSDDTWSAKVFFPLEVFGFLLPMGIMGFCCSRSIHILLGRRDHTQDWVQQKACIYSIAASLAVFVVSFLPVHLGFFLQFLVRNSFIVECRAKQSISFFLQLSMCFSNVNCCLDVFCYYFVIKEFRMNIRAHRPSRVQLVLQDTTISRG

`CCn1c(C=CN(C(C)=O)c2ccccc2)[n+](CC)c2cc(Cl)ccc21` was tested, and the IC50 [1] was 2.23 µM (active) and the IC50 [2] was 4.45 µM (active).

`COc1ccc(N2C(=O)NC(=O)/C(=C\c3c[nH]c4ccc(Br)cc34)C2=O)c(OC)c1` was tested, and the EC50 [3] was > 300 µM (inconclusive), the IC50 [4] was 1.66 µM (active) and the EC50 [5] was > 300 µM (inconclusive).

With `CCN(CC)C(=O)CSc1ncnc2c(-c3cccs3)nsc12` the IC50 [6] was 17.8 µM (active), the IC50 [7] was 61.2 µM (active) and the IC50 [8] was 12.9 µM (active). For the same compound, the IC50 [9] was 37.6 µM (active) and the IC50 [10] was 3.16 µM (active).
